Series [1] has as its system Candida strain ATCC 20962. Put plainly: Bioreactor conversion of ethyl decanoate to sebacic acid (Example 73). The class given is cell-based. As to conditions: decane induction. As for the experimental part: (§1) By conversion tests for ethyl decanoate were performed in 0.5 L Infors HT Multifors bioreactors (Infors AG, Switzerland) with working volumes of 0.4 L each. […] Fermentation medium. […] Bioreactors were equipped with two rushton impellers rotating at 1000 rpm. Bioreactors were inoculated to an OD of approximately 0.2 and growth continued for approximately 12-14 hours, at which point the conversion phase was initiated by evenly space boluses of ethyl decanoate. Culture pH was kept constant at 5.8 during the growth phase by automatic addition of 6 N KOH and temperature and airflow were controlled at 30° C. and 1 vvm respectively.
(§2) At induction, the pH was changed to 6.2 and maintained by addition of 6N KOH. Bioreactors were induced with an initial 4.0 ml bolus of decane for 6 hours with an airflow rate of 0.25 vvm to minimize evaporation.
Following this initial 6 hour induction, airflow was increased to 1 vvm and 58 μl of ethyl decanoate was added every 30 minutes for the next 6 hours. Ethyl decanoate boluses were then increased to 116 μl at a frequency of once per hour for the next 36 hours. In addition, a co-feed of dextrose was fed at a rate of 1.25 g/L-h. Final samples were taken 12 hours after the final ethyl decanoate bolus. […]

Series [2] relates to strain sAA1082. Described as above. The class given is cell-based, Candida. As for the experimental part:
as §1, §2
(§3) Following this initial 6 hour induction, airflow was increased to 1 vvm and 58 μl of ethyl decanoate was added every 30 minutes for the next 6 hours. Ethyl decanoate boluses were then increased to 116 μl at a frequency of once per hour for the next 36 hours. In addition, a co-feed of dextrose was fed at a rate of 1.25 g/L-h. Final samples were taken 12 hours after the final ethyl decanoate bolus. Yield calculations were made for all cultures taking only added ethyl decanoate into account due to the volatility of decane and the lack of decanedioic acid formation following the initial induction period.

The subject of a further series is strain sAA2178. The description is as above. The class given is cell-based, Candida. As for the experimental part:
as §1, §2, §3

Series [3] has as its system Candida. The settings on record: stated as background; cited from earlier work.
Series [4] relates to Candida tropicalis (ATCC20962). In words: Fermentation procedure for conversion of decane to sebacic acid (Example 3). The class given is cell-based. The settings on record: GC at 44 hours after initiating the conversion phase, FIG. 16. As for the experimental part:
Filter sterilized modified SP92-glycerol fermentation medium (6.7 g/L yeast nitrogen base, 3.0 g/L yeast extract, 3.0 g/L (NH4)2SO4, 1.0 g/L K2HPO4, 1.0 g/L KH2PO4, 20 g/L glycerol) is transferred to a sterile fermentation vessel. Growth of Candida tropicalis (ATCC20962) is inoculated to an initial OD600nm of about 1.0 with a 5% inoculum and growth carried out under the following conditions: 30° C. with shaking at about 1000 rpm, 1 volume per volume per minute aeration (vvm), pH 5.8 and initial volume of 0.3 L. Growth proceeds for approximately 8 hours and the conversion phase is initiated by the addition of decane to 2 g/L. Continuous feeds for decane (1 g/L-h) and glucose (1.5 g/L-h) are initiated at the same time as the addition of the decane bolus. Fermentation conditions are maintained at 30° C., 1000 rpm, 1 vvm, and pH 5.8 for 44 hours.
Samples were collected for GC analysis at 44 hours after initiating the conversion phase. […] Significant evaporative losses from the decane feed bottles prevented an accurate determination of product yield.

Series [5] concerns Candida. Put plainly: Toxicity of feedstock or by-product to the yeast (viable cell counts). It counts as cell-based. The text has this: Methyl esters of fatty acids can be converted to the corresponding diacid by beta-oxidation-blocked strains of Candida since Candida produces an esterase that demethylates the fatty acid ester during the omega-oxidation process, allowing conversion of methyl decanoate into the non-toxic diacid, sebacic acid. Unfortunately, having an excess of methyl decanoate in the fermentation broth prior to induction of the enzymes involved in omega-oxidation process results in sufficient demethylation of methyl decanoate to produce toxic levels of decanoic acid, resulting in rapid cell death and a failed fermentation. The standard fermentation procedure would utilize the feedstock (methyl decanoate) as inducer.
Growth was initiated with an inoculum of pre-culture to an initial OD600nm=1.0 and growth conditions of 35° C., 1000 rpm, 1 vvm, pH 5.8. Growth continued for approximately 10-12 h at which point the conversion phase was induced by the addition of either: 1) a bolus of 10 g/L of decane (Sigma-Aldrich #457116) for 6 h after which a continuous feed of methyl decanoate (TCI America #D0023) at 0.25 g/L-h was initiated or 2) no addition of decane. Induction was performed by initiating a continuous feed of methyl decanoate at 0.25 g/L-h. Because of the volatility of decane, the aeration rate was reduced to 0.3 vvm during the 6-h induction phase with decane as inducer. […]

Series [6] concerns strain sAA1082. The settings on record: ethanol co-feed 0.7 g/L-h. As for the experimental part:
Fermentation medium (MM1) at pH 5.8 was filter sterilized and transferred to a sterile fermentation vessel. For the control, dextrose was used for both growth and co-feed. For the experimental fermentations, glycerol or xylose was substituted oh a g/g basis for dextrose in both the growth medium (MM1) and in the co-feed. Growth was initiated with an inoculum of pre-culture to an initial OD600nm=1.0 and growth conditions of 35° C., 1000 rpm, 1 vvm, pH 5.8. Growth continued for approximately 10-12 h at which point the conversion phase was initiated by a continuous feed of methyl laurate. Methyl laurate was fed at a rate of 0.7 g/L-h for the first 24 h; 1.2 g/L-h from 24 h to termination. In addition, a co-feed of ethanol was fed at a rate of 0.7 g/L-h. The ethanol feed-rate was reduced relative to what would normally be used for glucose (1.2 g/l-h), since ethanol is theoretically a more energy-rich compound. At induction, the temperature was changed to 30° C. and the pH was maintained at 6.0 by addition of 6N KOH.

This is an account of results in patent US20190010524A1, “BIOLOGICAL METHODS FOR PREPARING A FATTY DICARBOXYLIC ACID” (Verdezyne, Inc., priority 2012, published 2019).

As for `CCCCCCCCCC(=O)OCC` [Ethyl decanoate], the “Feedstock Yield (g sebacic acid/g feedstock) ATCC 20962” value in series [1] is listed as 0.685 g sebacic acid/g feedstock. Also, in the series with strain sAA1082 [2], the “% improvement over ATTC 20962 sAA1082” value stood at 58.9%. Besides, in the series on strain sAA1082 [2] (bioreactor, decane induction), the “Feedstock Yield (g sebacic acid/g feedstock) sAA1082” value is given as 1.088 g sebacic acid/g feedstock. Moreover, in the series on strain sAA2178, the “% improvement over ATTC 20962 sAA2178” value stood at 50.7%. Besides, the “Feedstock Yield (g sebacic acid/g feedstock) sAA2178” value in the series on strain sAA2178 (bioreactor, decane induction) is reported as 1.032 g sebacic acid/g feedstock.
`CCCCCCCCCCCC(=O)O` [Lauric acid]: the “toxicity to Candida” value with Candida [3] is “not as toxic to Candida as is decanoic acid”.
In the case of `CCCCCCCCCC` [decane], the conversion of decane entry in series [4] was “converted exclusively to the C10 dicarboxylic acid, sebacic acid”.
As to `CCCCCCCCCC(=O)O` [decanoic acid], the “toxicity to Candida” value in the series with Candida [3] was “high degree of toxicity”. Further, in the series with Candida [5], the “toxicity to Candida (viable cell count data)” value was “demonstrates the toxicity”.
Regarding `CCO` [ethanol], in the series with strain sAA1082 [6], the “accumulation of HFA” value stood at 5.3 g/L, the “accumulation of lauric acid” value is on record as 8.5 g/L and the “accumulation of methyl laurate” value amounted to 38 g/L. Besides, the DDDA productivity with strain sAA1082 [6] (methyl laurate feed) came out at 0.446 gL.
`CCCCCCCCCC(=O)OC` [methyl decanoate]: the “toxicity to Candida” value with Candida [3] is listed as “very low toxicity”.
